Data published in a melting point compilation (Tetko et al.).

| melting point [°C] | SMILES |
| --- | --- |
| 21 | CCOc1ccccc1C=O |
| 278 | CC1C(=O)C23C(O)CC4C(C)(C)CCC(O)C4(CO)C2C(O)CC1C3O (configuration not stated) |
| -107 | C=C1CCCCC1 |
| 185 to 186 | CC1=CC(=O)C(C(=O)OC2CC(C)CCC2C(C)C)C(C)C1C(=O)OC1CC(C)CCC1C(C)C (configuration not stated) |
| 245 | COC(=O)CCc1cc2c(cc1NC(C)=O)NC(=O)CC2 |
| 102 | N#CCc1nc2ccccc2s1 |
| 140 | NCCCC(N)C(=O)O (configuration not stated) |
| 138 | CC12CCC(C(CO)C1=O)C2(C)C (configuration not stated) |
| 84 | Cc1cncc(C#N)c1 |
| 266 | COc1ccccc1C=C1C(=O)NN=C1c1c(O)c2ccccc2n(C)c1=O |
| 111 | NC(=S)NCCCc1ccccc1 |
| 149 | COc1ccc(C(=O)O)c(C(F)(F)F)c1 |
| 249 to 251 | CCOC(=O)C12C(c3ccccc3OP1(=O)OCC)C1(C(=O)OCC)C2c2ccccc2OP1(=O)OCC (configuration not stated) |
| 90 | CCOc1ccc2ccc(=O)oc2c1 |
| 101 | Nc1cc([N+](=O)[O-])ccc1F |
| -32.5 | Cc1ccc(Cl)c(C)c1 |
| 70 | CCOC(=O)C=CC(=O)O |
| 168 to 170 | COC(=O)c1c(C)n[nH]c1-c1cc(C)on1 |
| 99 | CC(C)(C)c1ncc(C(=O)Nc2cc(C(F)(F)F)cc(C(F)(F)F)c2)nc1Cl |
| 132 | CCOC(O)C(OC(C)=O)C(OC(C)=O)C(OC(C)=O)C(COC(C)=O)OC(C)=O (configuration not stated) |
| 163 | Cc1ccc(CC(=O)Nc2ccc(C)cc2)cc1 |
| 230 to 232 | COC(=O)C1=C(N)Oc2cc(C)[nH]c(=O)c2C1c1ccccc1 (configuration not stated) |
| 200 | Sc1nccc(-c2ccco2)n1 |
| 79 | COc1ccc(C(O)(c2ccc(OC)cc2)c2ccc(OC)cc2)cc1 |

| melting point [°C] | SMILES |
| --- | --- |
| 285 to 287 | O=C1CCC(c2ccc(NC(=O)c3ccc(F)cc3)cc2)=NN1 |
| -11.3 | CC(C)(C)c1cccc2ccccc12 |
| 132 to 134 | CN(C)c1ccc([N+]([O-])=CC(=O)c2ccc(C(=O)C=[N+]([O-])c3ccc(N(C)C)cc3)cc2)cc1 |
| 244 to 246 | CC1(C)C(C=Cc2cc([N+](=O)[O-])cc([N+](=O)[O-])c2[O-])=[N+](Cc2ccccc2)c2ccccc21 |
| 239 to 240 | Cc1ncoc1C(=O)O |
| 226 | NC(=O)CCCCC(N)=O |
| 60 | CC(CO)NC(=O)OC(C)(C)C (configuration not stated) |
| 85 | Cc1ccc2oc(CCC(C)(O)c3ccccc3)c(-c3ccc(C)o3)c2c1 (configuration not stated) |
| 73 to 75 | COC(=O)c1ccc[nH]1 |
| 222 | CN(C)C1C(=O)C(=C(N)O)C(=O)C2(O)C(=O)C3=C(O)c4c(O)ccc(Cl)c4C(O)C3CC12 (configuration not stated) |
| 44 | CCCCCCOc1ccc(N)cc1 |
| 300 | Nc1nc(O)cc(O)n1 |
| 136 | O=C(C(Cl)Cl)N(CCO)Cc1ccc(Oc2ccc([N+](=O)[O-])cc2)cc1 |
| 105 | N#C/C(=C\c1ccccc1)c1nc2ccccc2s1 |
| 45 | C#Cc1ccc(Cl)cc1 |
| 208 | N=C1NC(=O)C(=NNc2cccc([N+](=O)[O-])c2)S1 |
| 142 | CCOC(=O)c1[nH]c(C)c(Br)c1C |
| 152 | O=C(N[C@@H](Cc1ccc(Br)cc1)C(=O)O)OCC1c2ccccc2-c2ccccc21 |
| 123 | C1CC2CC1C1OC21 (configuration not stated) |
| -7 | C1CCCCCCCCCC1 |
| 377 | CC1C(=O)C23C(O)CC4C(C)(C)CC(O)CC4(C)C2CCC1C3O (configuration not stated) |
| 5 | CC1CCOS(=O)O1 (configuration not stated) |
| 76 | Cc1ccc(-c2ccc(C)c(C)c2)cc1C |
| 124 to 130 | Oc1ccc2cc[nH]c2c1 |

| melting point [°C] | SMILES |
| --- | --- |
| 305 to 310 | Nc1nc(O)nc2c1cnn2CCO |
| -0.5 | C1CCN(CCN2CCCCC2)CC1 |
| 31 to 48 | CCCCc1ccc(/N=N/c2ccc(OC)cc2)cc1 |
| 166 | Cc1ccc(-c2ccc(C=C3C(=O)OC(C)(C)OC3=O)o2)cc1 |
| 61 | CC(=O)NCc1ccccc1 |
| 135 | CCC(C(=O)C=Cc1ccccc1)C(=O)OC1CC(C)CCC1C(C)C (configuration not stated) |
| 45 | CCCCCCCCC=CCCCCCCCC(=O)O |
| 221 to 225 | CN1C(=N)NC(=O)C1Cc1ccc(O)cc1 (configuration not stated) |
| 150 | O=C(C=Cc1ccccc1O)c1cccc(C(=O)C=Cc2ccccc2O)c1 |
| 115 | Ic1c(-c2ccccc2)cccc1-c1ccccc1 |
| 114 to 117 | CC(C)(C)C(CCC(=O)O)CC(=O)O (configuration not stated) |
| 48 to 57 | CCOC(=O)CCC(=O)OC(C(=O)c1ccccc1)c1ccccc1 (configuration not stated) |
| 172 to 174 | Oc1c(F)c(F)c(O)c(F)c1F |
| 175 | N#Cc1nc[nH]c1C#N |
| -3 | COC(=O)CS |
| 140 | COc1cc([N+](=O)[O-])cc(C=O)c1O |
| 150 | CC(C)CCC[C@@H](C)[C@H]1CC[C@H]2C3=CC=C4C[C@@H](O)CC[C@]4(C)[C@H]3CC[C@]12C |
| 72 | Clc1cc(C(Cl)Cl)c(Cl)cc1C(Cl)Cl |
| 33 to 38 | COCN1CCOCCOCCN(COC)CCOCCOCC1 |
| 1.3 | CCCCCCCCCCCCOC(C)=O |
| 137 to 142 | CS(=O)(=O)c1ccc(C#N)cc1 |
| 118 to 121 | CCOC(=O)C1CSCCN1 (configuration not stated) |
| 229 to 236 | CC(C)(C)c1cc(C(C)(C)C)c2oc(C(=O)O)cc(=O)c2c1 |
| 15 to 19 | NCCCNCCO |

| melting point [°C] | SMILES |
| --- | --- |
| 132 | OCCC1CCNCC1 |
| 234 to 236 | O=C(O)Cc1cc(O)c(CC(=O)O)cc1O |
| 60 | Nc1ccc(Cl)c(F)c1 |
| 264 to 266 | Cc1cc(C)c2c(=O)n(-c3cccc(C(F)(F)F)c3)c(=O)[nH]c2n1 |
| 232 | NC(CCS)C(=O)O (configuration not stated) |
| 92 to 94 | Nc1nn2c(C(F)(F)F)cc(=O)[nH]c2c1/N=N/c1c(Br)cc(Br)cc1Br |
| 75 to 76 | CON(/C=C1\C(=O)C2(C)CCC1C2(C)C)c1ccccc1 (configuration not stated) |
| 205 | NC(=S)NN=C1C2CCCC1C1(O)CCCCC1C2c1ccccc1 (configuration not stated) |
| 194 to 198 | CCOC(=O)c1c(=S)ncn2c1[nH]c1ccccc12 |
| 64 | O=C1c2ccccc2C(=O)N1CCOCCO |
| 128 to 130 | NC(=S)CS(=O)(=O)Cc1ccco1 |
| 205 to 210 | O=C(O)C1OC(C(=O)O)C(C(=O)O)C1C(=O)O (configuration not stated) |
| 95 to 96 | Fc1ccc(-c2ccc(Br)cc2)cc1 |
| 250 | O=C(O)c1ccc2nccn2c1 |
| 35.5 | Nc1c(F)c(F)c(F)c(F)c1F |
| 186 | COc1ccc(CC(N)=O)cc1 |
| 85 | OCC(Br)C(Br)CO (configuration not stated) |
| 174 | [O-][P+](c1ccccc1)(c1ccccc1)C1C=C(c2ccccc2)C=C(c2ccccc2)S1 (configuration not stated) |
| 77 | COc1ccc(Cl)cc1C=O |
| 131 | CC1(C)CC(O)CC(C)(C)N1 |
| 151 to 155 | COC(=O)c1sc(SC)c(S(=O)(=O)C(C)C)c1N |
| -40 | C=C(C)CCCCCCCCC |
| 114 to 118 | O=C(CBr)c1cc(-c2ccc(Cl)c(Cl)c2)no1 |
| 220 | COc1ccc(C(=O)O)cc1Br |

| melting point [°C] | SMILES |
| --- | --- |
| 85 | Clc1cn2ccsc2n1 |
| 214 | CN1CCN(C(=O)CC(c2ccc(Cl)cc2)(c2ccc(Cl)cc2)c2ccc(Cl)cc2)CC1 |
| 132 to 135 | CC(=O)OC1COC(C#N)C(OC(C)=O)C1OC(C)=O (configuration not stated) |
| 262 | Cc1cc(=O)n(N)c(=S)[nH]1 |
| 59 | COc1ccc(N)cc1C(F)(F)F |
| 194 | CCOc1ccc(-c2nnc3n2NC(c2ccccc2OC)S3)cc1 (configuration not stated) |
| -58 | COCCOC |
| 155 to 156 | CSC(SC)=C1CCCC(=C(SC)SC)C1=C(C#N)C#N |
| 39 | O=[N+]([O-])c1cccc(OCCBr)c1 |
| 123 to 127 | C=CC(=O)NC(O)C(=O)O (configuration not stated) |
| 199 to 202 | O=[N+]([O-])c1ccc(S(=O)(=O)OCc2cccc(OS(=O)(=O)c3ccc([N+](=O)[O-])cc3)c2)cc1 |
| 196 | O=C(Nc1c(Cl)cccc1Cl)C(C(F)(F)F)C(F)(F)F |
| 73 | CC(=O)C1=CCCCC1 |
| 184 | Ic1cc(I)cc(I)c1 |
| 107 to 108 | O=C1CCCN1c1ccc(S(=O)(=O)Cl)cc1 |
| 35.5 | CCCCCCCCNCCCCCCCC |
| 77.5 | CC(=S)Nc1ccccc1 |
| 80 | CSC(Nc1ccccc1)=C(C#N)C#N |
| 116 | Cc1cccc(C)c1C(=O)O |
| 232 to 233 | Cc1nc(C(=O)O)c(C)o1 |

| SMILES | melting point [°C] |
| --- | --- |
| C#C[C@@]1(O)CC[C@@H]2[C@@H]3CC[C@@H]4CC(=O)CC[C@]4(C)[C@H]3CC[C@@]21C | 220 to 221 |
| COc1ccc2c3c1OC1C(O)CCC4C(C2)N(C)CCC341 (configuration not stated) | 200 |
| O=c1n(Cl)c(=O)n(Cl)c(=O)n1Cl | 249 |
| Brc1ccc(Oc2c(Br)cc(Br)cc2Br)c(Br)c1 | 97 to 98 |
| Oc1cccc(Cl)c1O | 48.5 |
| Nc1ccc(Oc2ccc(N)cc2)cc1 | 191 |
| CNC(=O)ON=C(SC)C(=O)N(C)C | 101 |
| Clc1ccc2c(c1)Oc1c(Cl)c(Cl)c(Cl)c(Cl)c1O2 | 195 |
| O=C(CCl)NCO | 100 |
| c1ccc(N=NNc2ccccc2)cc1 | 98 |
| c1cnc2c(c1)ccc1ncccc12 | 79 |
| NC(=O)CF | 108 |
| CC1(C)CON(Cc2ccccc2Cl)C1=O | 33.9 |
| CC#Cc1cc(C)nc(Nc2ccccc2)n1 | 133 |
| C#CC(C)(C)NC(=O)c1cc(Cl)cc(Cl)c1 | 156 |
| N#Cc1ccc(C(F)(F)F)cc1Cl | 83 |
